Common to all, as to assay type: cell-based, human
The subject of test [1] is galectin-7. Nature of the test: Galectin-7 expression in keratinocytes (real-time PCR, immunoblot). Conditions: for galectin-7 protein expression: HaCaT cells, treated with cytokines for 2 days, immunoblot; for galectin-7 expression: keratinocytes, other statin drugs, data not shown. The procedure: Human keratinocyte cell line HaCaT was maintained at 37° C. in Dulbecco's modified Eagle's medium (DMEM) supplemented with 10% of fetal bovine serum (FBS), 2 mM glutamine, 100 U/ml penicillin and 100 μg/ml streptomycin. Short hairpin RNA (shRNA) reagents were obtained from the National RNAi Core Facility located at the Institute of Molecular Biology and Genomic Research Center, Academia Sinica, supported by the National Core Facility Program for Biotechnology Grants of NSC. Four shRNAs with clone IDs of TRCN0000057393, TRCN0000057394, TRCN0000057395, and TRCN0000057396 were used to generate stable galectin-7 knockdown HaCaT clones. HaCaT cells were infected with one of the four shRNA-expressing lentiviruses and puromycin was employed to select stable cell clones after 3 days of infection. After puromycin selection, four individual pooled clones were cultured in puromycin-free medium for 2 weeks before further analysis.
Primary neonatal human epithelial keratinocytes, HEKn cells, were purchased from Gibco. HEKn cells were cultured at 37° C. in keratinocyte serum-free medium (K-SFM) supplemented with 30 μg/ml bovine pituitary extract and 5 ng/ml recombinant human epidermal growth factor from the same company. Compared with HaCaT cells, HEKn cells have a limited proliferation ability and are not suitable for establishing shRNA-based stable knockdown cells; therefore, a small interfering RNA (siRNA) oligo was used to transiently knock down the expression of galectin-7. The Silencer® Select siRNAs were purchased from Invitrogen, including negative control #1 and a predesigned siRNA targeting human galectin-7 (Catalog number: s230574, which targets the sequence of exon 3 of NM_002307.3). Thirty picomoles of siRNAs were delivered into HEKn cells in a 6-well plate setup by means of Lipofectamine 2000.
Cells were harvested and lysed in RIPA lysis buffer containing 1% of Triton X-100 and a protease inhibitor cocktail, and total protein concentrations were measured with a protein assay kit. Proteins in the samples of the lysates with the same amounts of total protein were separated by sodium dodecyl sulfate polyacrylamide gel electrophoresis (SDS-PAGE) and analyzed by immunoblotting. Primary antibodies against phospho-Erk1 (pT202)/Erk2 (pT185), Erk1, Erk2, NF-κB p65, phospho-NF-κB p65 (pS536), IκBα, phospho-IκBα pS32, β-actin, or GAPDH were applied to detect the corresponding proteins. Horseradish peroxidase (HRP)-conjugated secondary antibodies against mouse, rabbit, or goat IgG were then incubated with the membranes, and proteins were visualized by chemiluminescence according to the manufacturer's instructions. Protein quantification was performed by software.
Total RNAs (including mRNA and miRNA) were extracted from cultured cells or mouse ears with the TRIzol Reagent. For measurement of human galectin-7, IL-6, IL-8, IL-17A, and IFN-γ levels, mRNAs were reverse-transcribed into cDNA by means of the cDNA synthesis kit, and real-time PCR was carried out with specific probes accompanied with primers targeting humangalectin-7, IL-6, and IL-8 according to the manufacturer's instructions.

Another test relates to IL-8. Nature of the test: IL-8 production by keratinocytes (ELISA). The following applies: for IL-8 production: HaCaT and HEKn cells subjected to immune stimuli, ELISA; for IL-8 production induced by IL-17A: galectin-7 knockdown keratinocytes, data not shown. The procedure:
(§1) To measure the concentrations of proinflammatory cytokines secreted by keratinocytes, 2×10^4 cells were seeded in 96-well plates. Cells were incubated for 24 hours and then treated with 50 μg/ml LPS, 100 ng/ml human TNF-α, 100 or 200 ng/ml human IL-17A, 200 ng/ml human IL-22, 100 ng/ml human IL-23, or 50 ng/ml IFN-γ at 37° C. for 48 hours. In addition, the MEK inhibitor PD98059 was added along with stimulation by LPS or IL-17A (48 hours). The supernatants were then collected and analyzed by ELISAs, which were performed using a specific combination of paired antibodies (capture and detection antibodies).

For a further test, the system named is IL-6. Description: IL-6 production by keratinocytes (ELISA). Conditions: for IL-6 production: HaCaT and HEKn cells subjected to immune stimuli, ELISA; for IL-6 production induced by IL-17A: galectin-7 knockdown keratinocytes, data not shown. The method, then:
as §1
On the technique in general: ELISA stands for enzyme-linked immunosorbent assay.

The subject of test [2] is galectin-7. Description: Galectin-7 protein in lung cancer cells (immunoblot). The following applies: for effect on fluvastatin-induced galectin-7 upregulation: co-administered with fluvastatin, 200 μM Mevalonate, 20 μM GGPP, 20 μM FPP. The procedure:
CL83, CL141, CL100, CL25, PC9, PC9-IR, CL97, H1975, and H3255 cells were obtained from Dr. Pan-Chyr Yang (National Taiwan University, Taiwan), and A-431 (ATCC© CRL-1555™), H1650 ((ATCC© CRL-5883™)) and HCC827 ((ATCC© CRL-2868™)) cells were purchased from ATCC. Cells were cultured in RPMI 1640 medium supplemented with 10% fetal bovine serum (Gibco). The mRNA of A549, H23, H226BR, H358, H460, H661, H928, H1299, H1435, and H1437 cells were produced by conventional method, such as the method as described herein.
Lysates from different lung cancer cell samples were prepared and aliquots containing 30 μg of protein from each lysate were analyzed using either 10% or 12% sodium dodecyl sulfate-polyacrylamide gel electrophoresis (SDS-PAGE). A polyvinylidene difluoride Immobilon H-bond membrane (EMD Millipore) was used for immunoblot analysis. The primary antibody against galectin-7 (Novagen) was used.

In the case of TNF-α, the galectin-7 protein expression result with galectin-7 [1] is “significantly reduced”. The IL-8 production result with IL-8 was “induced”. Besides, in the test on IL-6, the IL-6 production entry is reported as “induced”.

In the case of “IFN-γ: interferon (IFN)-γ, immune stimulus”, in the test with galectin-7 [1], the galectin-7 protein expression entry is “modest effects”. Moreover, the IL-8 production result with IL-8 was “only IL-17A (FIG. 2), TNF-α, and LPS (data not shown) induced”. Further, the IL-6 production entry in the test on IL-6 was “only IL-17A (FIG. 2), TNF-α, and LPS (data not shown) induced”.

With `CC(C)c1c(C(=O)Nc2ccccc2)c(-c2ccccc2)c(-c2ccc(F)cc2)n1CC[C@@H](O)C[C@@H](O)CC(=O)O` [atorvastatin], the galectin-7 expression entry with galectin-7 [1] is recorded as “induced galectin-7 expression”.

Turning to `S=C(S)N1CCCC1` [PDTC], in the test with IL-8, the “IL-8 production induced by IL-17A” value is reported as “not blocked”. For the same compound, in the test on IL-6, the “IL-6 production induced by IL-17A” value was “not blocked”.

Take `COc1cccc(-c2cc(=O)c3ccccc3o2)c1N` [PD98059]: in the test with IL-8, the “IL-8 production induced by IL-17A” value is reported as “significantly blocked”. For the same compound, the “IL-6 production induced by IL-17A” value with IL-6 was “significantly blocked”.

“epidermal growth factor (EGF): epidermal growth factor, activates EGFR signaling”: in the test on galectin-7 [2] (CL25, CL100, PC9 and PC9-IR cells starved overnight, 10 ng/ml EGF), the galectin-7 expression result is on record as “transiently upregulated”.

For the compound `COc1cc2ncnc(Nc3ccc(F)c(Cl)c3)c2cc1OCCCN1CCOCC1` [gefitinib], in the test with galectin-7 [2] (CL25 and CL100 cells, 10 μM, 24 hours), the “galectin-7 level (endogenous)” value is “downregulated”. Further, in the test on galectin-7 [2] (CL83, CL141 and PC9 cells, 10 μM, 24 hours), the “level of ectopically overexpressed galectin-7” value is “also downregulated”.

With `O=C(O)C[C@H](O)C[C@H](O)/C=C/c1c(C2CC2)nc2ccccc2c1-c1ccc(F)cc1` [pitavastatin], the galectin-7 expression entry with galectin-7 [1] is given as “induced galectin-7 expression”.

For `CC(C)=CCC/C(C)=C/CC/C(C)=C/CC/C(C)=C/COP(=O)(O)OP(=O)(O)O` [GGPP], the “effect on fluvastatin-induced galectin-7 upregulation” value with galectin-7 [2] (PC9-IR cells, 24 hours) is on record as “blocked”.

With `CC(O)(CCO)CC(=O)O` (stereo not shown) [mevalonate], the “effect on statin-induced upregulation of galectin-7” value with galectin-7 [2] (PC9-IR cells, 200 μM mevalonate with 10 μM statins, 24 hours) was “reversed”. Moreover, in the test with galectin-7 [2] (PC9-IR cells, 24 hours), the “effect on fluvastatin-induced galectin-7 upregulation” value is “reversed”.

For the compound `CC[C@H](C)C(=O)O[C@H]1CCC=C2C=C[C@H](C)[C@H](CC[C@@H]3C[C@@H](O)CC(=O)O3)[C@H]21` [mevastatin], in the test on galectin-7 [1], the galectin-7 expression entry was “induced galectin-7 expression”.

For the compound IL-21: immune stimulus, the IL-8 production result with IL-8 was “only IL-17A (FIG. 2), TNF-α, and LPS (data not shown) induced”. The IL-6 production entry in the test with IL-6 is “only IL-17A (FIG. 2), TNF-α, and LPS (data not shown) induced”.

Regarding `CC(C)=CCCC(C)=CCCC(C)=CCSc1ccccc1C(=O)O` [FTS, farnesyl thiosalicylic acid], the galectin-7 expression entry in the test on galectin-7 [2] (PC9-IR cells, 1 μM fluvastatin, FTS, 24 hours) is reported as “increased galectin-7 expression”.

For the compound `CC(C)=CCC/C(C)=C/CC/C(C)=C/COP(=O)(O)OP(=O)(O)O` [FPP], in the test with galectin-7 [2] (PC9-IR cells, 24 hours), the “effect on fluvastatin-induced galectin-7 upregulation” value was “blocked”.

Take `C[S+]([O-])c1ccc(-c2nc(-c3ccncc3)c(-c3ccc(F)cc3)[nH]2)cc1` (stereo not shown) [SB203580]: in the test on IL-8, the “IL-8 production induced by IL-17A” value is on record as “not blocked”. In the test on IL-6, the “IL-6 production induced by IL-17A” value was “not blocked”.
